Assay results as given in ChEMBL document CHEMBL4813945, “Discovery and development of novel pyrimidine and pyrazolo/thieno-fused pyrimidine derivatives as potent and orally active inducible nitric oxide synthase dimerization inhibitor with efficacy for arthritis” (Eur J Med Chem, 2021).
Activity calls are given as the source filed them. No cut-off for these calls is given here.

Columns and labels:
[1] = Metabolic stability in human hepatocytes assessed as half life measured upto 120 mins by LC-MS/MS analysis; type: ADME, cell-based, Hepatocyte
[2] = Cmax in Sprague-Dawley rat at 1 mg/kg, iv measured after 0.08 to 24 hrs by LC-MS/MS analysis; type: ADME, organism-based; design: route intravenous, time upper 24 hrs, dose 1 mg/kg, time lower 0.08 hrs; details: in vivo
[3] = Subacute toxicity in rat assessed as liver damage at 100 to 500 mg/kg, IG administered every other day for 14 days and measured every 2 days by H and E staining; type: organism-based; details: in vivo, po, 336 h, dose 100-500 mg/kg, time 14 day
[4] = Subacute toxicity in rat assessed as spleen damage at 100 to 500 mg/kg, IG administered every other day for 14 days and measured every 2 days by H and E staining; type: organism-based; details: in vivo, po, 336 h, dose 100-500 mg/kg, time 14 day
[5] = Acute toxicity in rat assessed as mortality at 2000 mg/kg, IG administered as single dose; type: organism-based; details: in vivo, po
CYP3A4/5 = CYP3A4/5 (Homo sapiens, UniProt P08684+P20815); assay: Inhibition of CYP3A4/5 in human liver microsomes using Midazolam as substrate measured after 20 mins by LC-MS/MS analysis; type: ADME; details: probe Midazolam
[6] = Subacute toxicity in rat assessed as lung damage at 100 to 500 mg/kg, IG administered every other day for 14 days and measured every 2 days by H and E staining; type: organism-based; details: in vivo, po, 336 h, dose 100-500 mg/kg, time 14 day
[7] = Subacute toxicity in rat assessed as change in body weight at 100 to 500 mg/kg, IG administered every other day for 14 days and measured every 2 days; type: organism-based; details: in vivo, po, 336 h, dose 100-500 mg/kg, time 14 day
[8] = Acute toxicity in rat assessed as liver necrosis at 200 to 500 mg/kg measured after 7 days by H and E staining based assay; type: organism-based; details: in vivo, 168 h, dose 200-500 mg/kg, time 7 day
Rattus norvegicus [9] = assay: Antiinflammatory activity in complete freund's adjuvant-induced IG dosed male Sprague-Dawley rat model of arthritis assessed as decrease in TNF-alpha level in serum after 4 weeks by ELISA; type: functional, organism-based; details: dose 40-80 mg/kg
[10] = Subacute toxicity in rat assessed as heart damage at 100 to 500 mg/kg, IG administered every other day for 14 days and measured every 2 days by H and E staining; type: organism-based; details: in vivo, po, 336 h, dose 100-500 mg/kg, time 14 day
[11] = Subacute toxicity in rat assessed as drowsiness at 100 to 500 mg/kg, IG administered every other day for 14 days and measured every 2 days; type: organism-based; details: in vivo, po, 336 h, dose 100-500 mg/kg, time 14 day
[12] = Metabolic stability in rat hepatocytes assessed as parent compound remaining after 120 mins by LC-MS/MS analysis; type: ADME, cell-based, Hepatocyte; details: read-out: Stabilty
Rattus norvegicus [13] = assay: Antiinflammatory activity in complete freund's adjuvant-induced male Sprague-Dawley rat model of arthritis assessed as reduction in synovial hyperplasia at 80 mg/kg, IG after 4 weeks by H and E staining based histopathological analysis; type: functional, organism-based
[14] = Subacute toxicity in rat assessed as clonic convulsions at 100 to 500 mg/kg, IG administered every other day for 14 days and measured every 2 days; type: organism-based; details: in vivo, po, 336 h, dose 100-500 mg/kg, time 14 day
[15] = Half life in Sprague-Dawley rat at 10 mg/kg, po measured after 0.25 to 24 hrs by LC-MS/MS analysis; type: ADME, organism-based; details: in vivo, time 0.25-24 hrs
L02 = assay: Antiinflammatory activity against human L02 assessed as inhibition of LPS-induced NO production preincubated for 1 hrs followed by LPS stimulation and measured after 24 hrs by Griess assay relative to control; type: functional, cell-based
[16] = Volume of distribution at steady state in Sprague-Dawley rat at 1 mg/kg, iv measured after 0.08 to 24 hrs by LC-MS/MS analysis; type: ADME, organism-based; details: in vivo, time 0.08-24 hrs, read-out: Vdss

## COc1cc(/C=C/c2nc(NCc3ccc(C)cc3)c3sccc3n2)cc(OC)c1OC
[1]
  half-life: 5.44 h
[2]
  Cmax: 388 ng/mL
[3]
  Activity: Non-Toxic
[4]
  Activity: Non-Toxic
[5]
  Activity: Non-Toxic
CYP3A4/5
  IC50 at 20 min: > 50 µM
[6]
  Activity: Non-Toxic
[7]
  Activity: Toxic
[8]
  Activity: Toxic
Rattus norvegicus [9]
  Activity: Dose-Dependent Effect
[10]
  Activity: Non-Toxic
[11]
  Activity: Non-Toxic
[12]
  remaining at 2 h: 22.2%
Rattus norvegicus [13]
  Activity: Active
[14]
  Activity: Non-Toxic
[15]
  half-life: 4.91 h
L02
  IC50: > 1000 µM
[16]
  Vd: 11.3 L/kg
